Results on nine compounds are retold here after article PMC7397249, “Properly Substituted Cyclic Bis-(2-bromobenzylidene) Compounds Behaved as Dual p300/CARM1 Inhibitors and Induced Apoptosis in Cancer Cells” (Molecules, 2020).

One experiment concerns the target T1, PCAF (Homo sapiens, UniProt Q92831).
T1 construct: PCAF (aa 492–658, 250 nM); purchased Reaction Biology Corporation
Kind of experiment: HotSpot HAT activity assay, PCAF. The class given is biochemical. The conditions noted are these: 10-dose, from 200 μM; histone H3, [acetyl-3H]-acetyl-CoA. Here is the method: (§1) The newly synthesized compounds 4a–n were tested to determine their effects against acetylation and methylation epigenetic targets. First, 4a–n were screened in vitro against the two HAT enzymes p300 and PCAF. […] To determine the activity against SIRT1 and -2, 4a–n were tested starting from 200 μM solutions using a modified Fluor de Lys fluorescence-based assay with amino acids 379–382 (Arg-His-Lys-Lys(Ac)) of human p53 conjugated with aminomethylcoumarin as substrate and NAD^+ as co-substrate. […] Furthermore, 4a–n were tested against a human five-membered Polycomb repressive complex 2 (PRC2) containing EZH2, embryonic ectoderm development (EED), suppressor of zeste 12 (SUZ12), RbAp48, and adipocyte enhancer-binding protein (AEBP2), to assess their capability to inhibit the catalytic unit EZH2.
(§2) The effect of tested derivatives on the catalytic activity of p300 and PCAF was determined in a HotSpot HAT activity assay by Reaction Biology Corporation (Malvern, PA, USA) according to the company’s standard operating procedure. In brief, the recombinant catalytic domains of PCAF (aa 492–658, 250 nM) or p300 (aa 1284–1673, 30 nM) were incubated with histone H3 as substrate (5 µM) and [Acetyl-^3H]-Acetyl Coenzyme A (3 µM) as an acetyl donor in reaction buffer (50 mM Tris-HCl (pH 8.0), 50 mM NaCl, 0.1 mM EDTA, 1 mM DTT, 1 mM PMSF, 1% DMSO) for 1 h at 30 °C in the presence or absence of a dose titration of the compounds. The reaction mixture was delivered to filter-paper for detection. IC50 values were analyzed using Excel and GraphPad Prism 6.0 software (GraphPad Software Inc., San Diego, CA, USA). The experiments for p300 were performed in triplicate.

Another experiment deals with T2, p300 (Homo sapiens, UniProt Q09472).
T2 construct: p300 (aa 1284–1673, 30 nM); purchased Reaction Biology Corporation
T2 sequence (Q09472 1284-1673): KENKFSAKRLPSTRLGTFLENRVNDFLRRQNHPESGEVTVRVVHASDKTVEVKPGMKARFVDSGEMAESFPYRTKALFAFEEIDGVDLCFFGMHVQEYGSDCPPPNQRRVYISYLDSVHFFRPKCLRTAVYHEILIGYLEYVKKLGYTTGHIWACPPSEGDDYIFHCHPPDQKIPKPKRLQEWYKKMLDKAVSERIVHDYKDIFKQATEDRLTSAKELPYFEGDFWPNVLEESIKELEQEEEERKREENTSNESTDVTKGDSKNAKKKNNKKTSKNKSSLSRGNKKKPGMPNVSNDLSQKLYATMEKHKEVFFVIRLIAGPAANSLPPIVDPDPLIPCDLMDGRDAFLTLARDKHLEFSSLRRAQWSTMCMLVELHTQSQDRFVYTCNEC
The experiment in a line: HotSpot HAT activity assay, p300. Format: biochemical. The conditions noted are these: 10-dose, triplicate, from 200 μM; histone H3, [acetyl-3H]-acetyl-CoA. The procedure: as §1, §2

A further experiment relates to MCF-7 cells. Kind of experiment: Cell cycle and apoptosis (sub-G1) analysis by FACS in MCF-7 cells. The conditions noted are these: 5 μM, 30 h. The class given is cell-based, human. The procedure: Compounds 4a–n were tested at 5 μM for 30 h in NB4 […] and U937 AML cells among hematological cancers, and in MCF-7 breast cancer and SH-SY5Y neuroblastoma cells among solid cancers, to determine their effects in cell cycle and apoptosis induction.
In the same cell lines, the induction of apoptosis has been evaluated through the percentage of the sub-G1 peaks.
For colorimetric exclusion, the cells (2 × 10^5 cells/mL) were plated in multiwells in triplicate. After stimulations at different times and concentrations, cells were diluted in the ratio 1:1 in Trypan Blue (Sigma) and counted with an optical microscope. For cell cycle analyses, cells were plated (2 × 10^5 cells/mL) and were harvested, centrifuged at 1200 rpm for 5 min and resuspended in 500 μL of a hypotonic solution containing 1× PBS, Sodium Citrate 0.1%, 0.1% NP-40, RNAase A and […] Propidium Iodide (PI). After 30 min at room temperature (RT) in the dark, samples were acquired by FACS-Calibur (BD Bioscences, San Jose, CA, USA) using CellQuest software (BD Biosciences). The percentage in different phases of the cell cycle was determined by ModFit LT V3 software (Verity). All experiments were performed in triplicate. Cell death was measured as percentage of cells in sub-G1 phase as in [30].
On the technique in general: Flow cytometry measures light scatter and fluorescence of single cells or particles in a stream.

A further experiment addresses T3, SIRT2 (Homo sapiens, UniProt Q8IXJ6).
T3 construct: host or cells: E. coli
The experiment in a line: Modified Fluor de Lys fluorescence-based assay, SIRT2. Format: biochemical. To be noted: from 200 μM; p53 379-382 AMC substrate, NAD+. The procedure: as §1
The SIRT inhibition assay was performed using human recombinant SIRT1 and SIRT2 produced in E. coli. Compounds were tested using a modified Fluor de Lys fluorescence-based assay kit based on the method described in the BioMol product sheet (AK-555, AK-556, Milan, Italy). […] The second stage is initiated by the addition of the Developer II (KI176), including nicotinamide (NAM), nicotinamide that stops the SIRT1/2 activity, and the fluorescent signal is produced. The fluorescence was measured on a fluorometric reader (Infinite 200 TECAN, Männedorf, Switzerland) with excitation set at 360 nm and emission detection set at 460 nm.

T1 sequence (Q92831 492-658): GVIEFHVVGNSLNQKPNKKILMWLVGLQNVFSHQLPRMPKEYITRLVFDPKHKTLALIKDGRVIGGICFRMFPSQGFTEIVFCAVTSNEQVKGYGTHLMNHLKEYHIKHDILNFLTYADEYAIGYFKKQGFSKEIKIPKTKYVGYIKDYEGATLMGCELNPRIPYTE
T3 sequence (Q8IXJ6 whole entry): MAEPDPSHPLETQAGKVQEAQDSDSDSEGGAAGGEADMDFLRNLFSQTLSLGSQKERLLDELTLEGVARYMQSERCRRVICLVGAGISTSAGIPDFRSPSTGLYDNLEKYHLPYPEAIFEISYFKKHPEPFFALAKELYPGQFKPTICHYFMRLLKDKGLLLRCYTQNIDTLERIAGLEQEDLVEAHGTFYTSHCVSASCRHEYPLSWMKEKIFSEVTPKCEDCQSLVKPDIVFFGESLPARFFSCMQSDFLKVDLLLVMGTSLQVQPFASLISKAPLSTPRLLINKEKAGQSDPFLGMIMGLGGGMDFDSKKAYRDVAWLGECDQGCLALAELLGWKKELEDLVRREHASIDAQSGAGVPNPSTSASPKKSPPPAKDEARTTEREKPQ

By IC50 is commonly meant the concentration at which inhibition is half-maximal. Low values mean inhibition by little substance, high ones a need for much substance. As to `O=C1/C(=C/c2ccccc2Br)CN(CCCC(=O)c2ccccc2)C/C1=C\c1ccccc1Br` [Compound 4j, 3,5-Bis((E)-2-bromobenzylidene)-1-(4-oxo-4-phenylbutyl)piperidin-4-one], the IC50 against PCAF is above 200 µM; against p300, 2.13 ± 1.35 µM; on SIRT2, above 200 µM. Besides, the “cell cycle: block in G1/S phase with almost total absence of cells in the G2/M phase” value (shortened to “cell cycle: block … in the G2/M phase”) in the experiment on MCF-7 cells is reported as “almost total absence of cells”.

For the compound `O=C1/C(=C/c2ccccc2Br)CN(CC(=O)c2ccccc2)C/C1=C\c1ccccc1Br` [Compound 4h, 3,5-Bis((E)-2-bromobenzylidene)-1-(2-oxo-2-phenylethyl)piperidin-4-one], the 50% inhibitory concentration (IC50) is above 200 µM against PCAF, 1.03 ± 0.22 µM at p300 and above 200 µM at SIRT2. For the same compound, the “induction of apoptosis, % sub-G1 peaks” value in the experiment with MCF-7 cells is “around 25%”.

Consider `O=C1/C(=C/c2ccccc2Br)CN(C(=O)C=Cc2ccccc2)C/C1=C\c1ccccc1Br` [Compound 4n, 3,5-Bis((E)-2-bromobenzylidene)-1-cinnamoylpiperidin-4-one], for which the results for the IC50 against PCAF, against p300 and at SIRT2 were above 200 µM, 1.23 ± 0.29 µM and above 200 µM, respectively. Besides, in the experiment with MCF-7 cells, the “cell cycle: block … in the G2/M phase” value is “almost total absence of cells”. For the same compound, the “cell cycle: block in G1/S phase with almost total absence of cells in the S phase” value (“cell cycle: block in G1/S phase … in the S phase” for short) with MCF-7 cells is recorded as “almost total absence of cells”.

As for `O=C1/C(=C/c2ccccc2Br)CN(C(=O)Cc2ccccc2)C/C1=C\c1ccccc1Br` [Compound 4l, 3,5-Bis((E)-2-bromobenzylidene)-1-(2-phenylacetyl)piperidin-4-one], the IC50 was above 200 µM against PCAF, 0.45 ± 0.03 µM against p300 and above 200 µM against SIRT2. Moreover, in the experiment on MCF-7 cells, the “cell cycle: block in G1/S phase … in the S phase” value was “almost total absence of cells”.

`O=C1/C(=C/c2ccccc2Br)CN(CCCc2ccccc2)C/C1=C\c1ccccc1Br` [Compound 4g, 3,5-Bis((E)-2-bromobenzylidene)-1-(3-phenylpropyl)piperidin-4-one]: the IC50 was above 200 µM against PCAF, 40.7 ± 2.39 µM against p300 and above 200 µM at SIRT2.

Consider `O=C1/C(=C/c2ccccc2Br)CN(CCc2ccccc2)C/C1=C\c1ccccc1Br` [Compound 4f, 3,5-Bis((E)-2-bromobenzylidene)-1-phenethylpiperidin-4-one], for which the IC50 is above 200 µM against PCAF, 30.2 ± 2.71 µM against p300 and above 200 µM against SIRT2.

With `O=C1/C(=C/c2ccccc2Br)CN(C(=O)CCc2ccccc2)C/C1=C\c1ccccc1Br` [Compound 4m, 3,5-Bis((E)-2-bromobenzylidene)-1-(3-phenylpropanoyl)piperidin-4-one], the IC50 on PCAF was above 200 µM; against p300, 0.46 ± 0.1 µM; against SIRT2, above 200 µM. In the experiment with MCF-7 cells, the “cell cycle: block … in the G2/M phase” value is “almost total absence of cells”.

With `O=C1/C(=C/c2ccccc2Br)CN(Cc2ccccc2)C/C1=C\c1ccccc1Br` [Compound 4e, 1-benzyl-3,5-bis((E)-2-bromobenzylidene)piperidin-4-one], the values for the IC50 against PCAF, against p300 and against SIRT2 were above 200 µM, 2.19 ± 0.77 µM and above 200 µM, respectively. Also, the “cell cycle: block … in the G2/M phase” value in the experiment with MCF-7 cells is recorded as “almost total absence of cells”.

In the case of `O=C1/C(=C/c2ccccc2Br)CN(C(=O)c2ccccc2)C/C1=C\c1ccccc1Br` [Compound 4k, 1-Benzoyl-3,5-bis((E)-2-bromobenzylidene)piperidin-4-one], the figures for the IC50 against PCAF, at p300 and at SIRT2 were above 200 µM, 2.09 ± 0.79 µM and above 200 µM, respectively. Besides, the “cell cycle: block in G1/S phase … in the S phase” value in the experiment with MCF-7 cells was “almost total absence of cells”.
